Test results from patent US7098243B2, “Bicyclic carbohydrates as antiviral bioactives for the treatment of infections caused by the alphaherpesvirinae HSV-1 and HSV-2” (Kemin Pharma Europe B.V.B.A., priority 2003, dated 2006).
Values after ≈ are worked out from the molar mass of the structure shown. “Also recorded” adds a separate entry of the source. Read-outs that look alike come from different tables or passages of the source.

What was measured:
[1] = test system: human cytomegalo virus (HCMV); assay: Inhibition of viral-induced cytopathicity, HCMV in HFF cells; assay type: cell-based
[2] = test system: herpes simplex virus type 1 (HSV-1); assay: Cytopathic effect inhibition assay (CPE) against HSV-1 in HFF cells; settings: for EC50: Human alphaherpesvirus 1, HFF
[3] = test system: herpes simplex virus type 2 (HSV-2); assay: Cytopathic effect inhibition assay (CPE) against HSV-2 in HFF cells; settings: for EC50: Human alphaherpesvirus 2, HFF
[4] = test system: Clostridium perfringens ATCC 13124; assay type: cell-based; settings: 16 hours at 35° C., Mueller-Hinton broth
[5] = test system: Aspergillus fumigatus ATCC 2895; assay: Antifungal microdilution screening (Bioscreen C), A. fumigatus; assay type: cell-based; settings: 3 days at 30° C., RPMI 1640
[6] = test system: Pseudomonas aeruginosa ATCC 27853; assay: Antibacterial microdilution screening (Bioscreen C), P. aeruginosa; assay type: cell-based; settings: 16 hours at 35° C., Mueller-Hinton broth
[7] = test system: varicella zoster virus (VZV); assay: Inhibition of viral-induced cytopathicity, VZV in HFF cells; assay type: cell-based
West Nile virus = assay: Inhibition of viral-induced cytopathicity, West Nile virus in Vero cells; assay type: cell-based
HFF cells = assay: Toxicity (reduction of cell viability) in the HSV, HCMV and VZV screenings; assay type: cell-based; settings: reduction of cell viability by 50%
E. coli ATCC 25922 = assay: Antibacterial microdilution screening (Bioscreen C), E. coli; assay type: cell-based; settings: 16 hours at 35° C., Mueller-Hinton broth
Vero cells = settings: West Nile screening, reduction of cell viability by 50%
[8] = test system: Cryptococcus neoformans ATCC 90112; assay: Antifungal microdilution screening (Bioscreen C), C. neoformans; assay type: cell-based; settings: 48 hours at 35° C., RPMI 1640
[9] = test system: Candida albicans ATCC 24433; assay: Antifungal microdilution screening (Bioscreen C), C. albicans; assay type: cell-based; settings: 24 hours at 35° C., RPMI 1640
[10] = test system: Trichophyton mentagrophytes ATCC 9533; assay: Antifungal microdilution screening (Bioscreen C), T. mentagrophytes; assay type: cell-based; settings: 5 days at 30° C., RPMI 1640
[11] = test system: Staphylococcus aureus ATCC29213; assay: Antibacterial microdilution screening (Bioscreen C), S. aureus; assay type: cell-based; settings: 16 hours at 35° C., Mueller-Hinton broth
[12] = compounds related to Compound A1 (Table 4)
[13] = viral-induced cytopathicity in HFF cell cultures

Q: How did the EC50 ([1]; Human betaherpesvirus 5, HFF, reference product, read-out: GCV EC50) turn out when `Nc1nc(O)c2ncn(COC(CO)CO)c2n1` [GCV, ganciclovir, reference compound] was run?
A: 0.8 µg/mL (≈ 3.13 µM)

Q: How did the “EC50 HSV-1” value [2, 12] turn out when `C=CCO[C@@H]1[C@@H](OCC=C)[C@H](Cc2ccccc2)O[C@@H]2CO[C@@H](c3ccc(Cl)cc3)O[C@@H]12` was run?
A: >16 µg/mL

Q: What about the “EC50 HSV-2” value [3, 12] of the same compound?
A: >16 µg/mL

Q: With `CCO[C@@H]1[C@@H](OCC)[C@H](Cc2ccccc2)O[C@@H]2CO[C@@H](c3ccc(Cl)cc3)O[C@@H]12` [Compound A1] as the compound, how does the “MIC C. perfringens ATCC 13124” value [4] read?
A: >25 µg/mL

Q: What about the “MIC A. fumigatus ATCC 2895” value [5] of the same compound?
A: >25 µg/mL

Q: And the “MIC P. aeruginosa ATCC 27853” value [6]?
A: >25 µg/mL

Q: And the “Compound A1 S.I. (CC50/EC50)” value [7]?
A: 0

Q: What about the Compound A1 EC50 [7, 13] of the same compound?
A: > 100 µg/mL

Q: What about the “Compound A1 S.I. (CC50/EC50)” value ([2]; HSV-1) of the same compound?
A: >33.3

Q: And the Compound A1 EC50 ([2]; HSV-1, viral-induced cytopathicity in HFF cell cultures)?
A: 3 µg/mL

Q: What about the “Activity against HSV-1 (in words)” value ([2]; anti-viral screening) of the same compound?
A: strong activity

Q: What about the “Compound A1 S.I. (CC50/EC50)” value (West Nile virus; West Nile) of the same compound?
A: 0

Q: And the Compound A1 EC50 (West Nile virus; West Nile virus, Vero cells)?
A: > 50 µg/mL

Q: And the “Compound A1 CC50” value (HFF cells; HCMV screening)?
A: 71.0 µg/mL

Q: What about the “Compound A1 CC50” value (HFF cells; HSV-1 screening) of the same compound?
A: >100 µg/mL

Q: And the “Compound A1 CC50” value (HFF cells; HSV-2 screening)?
A: >100 µg/mL

Q: What about the “Compound A1 CC50” value (HFF cells; VZV screening) of the same compound?
A: >100 µg/mL

Q: And the “MIC E. coli ATCC 25922” value (E. coli ATCC 25922)?
A: >25 µg/mL

Q: And the “Compound A1 CC50” value (Vero cells)?
A: 50 µg/mL

Q: And the “Compound A1 S.I. (CC50/EC50)” value [1]?
A: <3.5

Q: What about the Compound A1 EC50 [1, 13] of the same compound?
A: > 20 µg/mL

Q: And the “MIC C. neoformans ATCC 90112” value [8]?
A: >25 µg/mL

Q: What about the “MIC C. albicans ATCC 24433” value [9] of the same compound?
A: >25 µg/mL

Q: And the “MIC T. mentagrophytes ATCC 9533” value [10]?
A: >25 µg/mL

Q: What about the “MIC S. aureus ATCC 29213” value [11] of the same compound?
A: >25 µg/mL

Q: What about the “Compound A1 S.I. (CC50/EC50)” value ([3]; HSV-2) of the same compound?
A: >3333

Q: What about the Compound A1 EC50 ([3]; HSV-2, viral-induced cytopathicity in HFF cell cultures) of the same compound?
A: < 0.03 µg/mL

Q: And the “Activity against HSV-2 (in words)” value ([3]; anti-viral screening)?
A: strong activity; also recorded: superior effect against HSV-2

Q: Which results are given for `CCO[C@@H]1[C@@H](OCC)[C@H](Cc2ccccc2)O[C@@H]2CO[C@@H](c3ccccc3)O[C@@H]12`?
A: EC50 ([2]; read-out: EC50 HSV-1): > 80 µg/mL; EC50 ([3]; read-out: EC50 HSV-2): > 80 µg/mL

Q: How did the EC50 ([2]; read-out: EC50 HSV-1) turn out when `CO[C@@H]1[C@@H](OC)[C@H](Cc2ccccc2)O[C@@H]2CO[C@@H](c3ccc(Cl)cc3)O[C@@H]12` was run?
A: > 16 µg/mL

Q: And the EC50 ([3]; read-out: EC50 HSV-2)?
A: > 16 µg/mL

Q: With `Nc1nc2c(ncn2COCCO)c(=O)[nH]1` [ACV, Acyclovir, reference compound] as the compound, how does the EC50 ([2]; read-out: ACV EC50) read?
A: 1.2 µg/mL (≈ 5.33 µM)

Q: What about the EC50 ([3]; read-out: ACV EC50) of the same compound?
A: 0.4 µg/mL (≈ 1.78 µM)
